# Source: article PMC10065799, “High-throughput profiling of sequence recognition by tyrosine kinases and SH2 domains using bacterial peptide display” (eLife, 2023)
# Test system: EPHB1 kinase domain
# Assay: pTyr-Var library bacterial peptide display kinase screen (enrichment scores)
# Assay type: biochemical, human
# Details: sheet "EPHB1"; variant seq vs reference seq; bacterial peptide display enrichment
row,Sequence,"Screen (variant relative to reference peptide, measured in the pTyr-Var library screen)"
1,FTDPFYDFEIE [ZC3H18_Y372_A368T_YF],0.9547
2,LTFHMYADPNI [SOS1_Y618_F623I_YF],0.02693
3,NREGVYTVSAP [TGFBI_Y537_F540S],-2.126
4,PANMVYSTVEI [SLAMF7_Y304_T302M],0.5023
5,SQINLYQDVML [ZNF806_Y33_A28S],-0.1927
6,SVVVLYEPPEV [TP53_Y220_P219L],3.168

# Same assay, conditions: sheet EPHB1; effect of the variant peptide relative to its reference peptide in the pTyr-Var library screen (enrichment scores)
row,Sequence,Screen
1,ASTHIYQIMNH [ITK_Y588_V587I],3.124
2,AVISVYDLVVV [PSEN1_Y256_A260V],-0.1318
3,EFHRLYEEFTR [PIK3R1_Y467_D464H_YF],0.6076
4,FAELVYTSFWH [ASS1_Y322_G324S],0.4613
5,GTSLIYWILFT [G6PC3_Y214_T216I],-1.942
6,HNLDFYKETTN [FGFR3_Y648_K650E_YF],-0.9671
7,ITNVLYHVVGW [GBA_Y412_L410V],-1.243
8,KAWGIYDCQQP [CYP3A7_Y75_V71A],0.3477
9,KSRQIYDAFIM [GRK3_Y109_R104K_YF],0.9818
10,MENFIYESMQF [CYP19A1_Y361_R365Q_YF],0.9498
11,MSRFIYSTDFF [NTRK1_Y676_D674Y_YF],-1.34
12,NDFGNYSNQSS [HNRNPA1_Y318_N319S],4.118
13,NVKGIYAVADV [GSR_Y371_G374A],1.714
14,QMVGMYASFFM [AVPR2_Y124_S127F_YF],1.725
15,RNFGTYTAGLS [RHBDD1_Y264_D262G_YF],-2.368
16,RQQQDYWLKDV [ANPEP_Y600_I603K],-4.233
17,VDGSLYETHPQ [HK1_Y417_K418E],1.816

# Test system: EPHB2 kinase domain
# Assay: as above
# Assay type: biochemical, human
# Details: sheet EPHB2; effect of the variant relative to its reference peptide in the pTyr-Var library screen
row,Sequence,Screen
1,SQINLYQDVML [ZNF806_Y33_A28S],-0.4727
2,SVVVLYEPPEV [TP53_Y220_P219L],4.006

# Same assay, conditions: sheet EPHB2; effect of variant peptide relative to its reference peptide in the pTyr-Var library screen (enrichment scores)
row,Sequence,Screen
1,ASTHIYQIMNH [ITK_Y588_V587I],2.415
2,AVISVYDLVVV [PSEN1_Y256_A260V],-0.3059
3,EFHRLYEEFTR [PIK3R1_Y467_D464H_YF],-0.0373
4,FAELVYTSFWH [ASS1_Y322_G324S],0.4289
5,GTSLIYWILFT [G6PC3_Y214_T216I],-1.51
6,HNLDFYKETTN [FGFR3_Y648_K650E_YF],-1.243
7,ITNVLYHVVGW [GBA_Y412_L410V],-1.361
8,KAWGIYDCQQP [CYP3A7_Y75_V71A],0.8548
9,KSRQIYDAFIM [GRK3_Y109_R104K_YF],1.299
10,LTFHMYADPNI [SOS1_Y618_F623I_YF],0.3507
11,LVTCSYLLGNS [LMNA_Y646_R644C],1.308
12,MENFIYESMQF [CYP19A1_Y361_R365Q_YF],1.167
13,MSRFIYSTDFF [NTRK1_Y676_D674Y_YF],-1.706
14,MTFQNYRQALF [FAM20C_Y279_G280R],-1.483
15,NDFGNYSNQSS [HNRNPA1_Y318_N319S],2.422
16,NREGVYTVSAP [TGFBI_Y537_F540S],-1.97
17,NVKGIYAVADV [GSR_Y371_G374A],2.725
18,PANMVYSTVEI [SLAMF7_Y304_T302M],0.9599
19,QMVGMYASFFM [AVPR2_Y124_S127F_YF],1.338
20,RIGRKYKRVRF [F8_Y442_K444R],1.084
21,RNFGTYTAGLS [RHBDD1_Y264_D262G_YF],-2.902
22,RQQQDYWLKDV [ANPEP_Y600_I603K],-3.253
23,RVLQLYGCSPS [ASTL_Y279_K277Q],1.225
24,VDGSLYETHPQ [HK1_Y417_K418E],2.555

# Test system: Fer kinase domain
# Assay: as above
# Assay type: biochemical, mouse
# Details: sheet "Fer"; value of the variant peptide against its reference peptide in the pTyr-Var library screen with Fer
row,Sequence,Screen
1,ASTHIYQIMNH [ITK_Y588_V587I],2.332
2,AVISVYDLVVV [PSEN1_Y256_A260V],0.009469
3,EFHRLYEEFTR [PIK3R1_Y467_D464H_YF],-0.6972
4,FAELVYTSFWH [ASS1_Y322_G324S],0.3535
5,GTSLIYWILFT [G6PC3_Y214_T216I],-1.528
6,HNLDFYKETTN [FGFR3_Y648_K650E_YF],-1.533
7,ITNVLYHVVGW [GBA_Y412_L410V],-0.5496
8,KAWGIYDCQQP [CYP3A7_Y75_V71A],0.5201
9,KSRQIYDAFIM [GRK3_Y109_R104K_YF],0.5964
10,MENFIYESMQF [CYP19A1_Y361_R365Q_YF],0.2137
11,MSRFIYSTDFF [NTRK1_Y676_D674Y_YF],-0.8782
12,NVKGIYAVADV [GSR_Y371_G374A],1.853
13,QMVGMYASFFM [AVPR2_Y124_S127F_YF],2.583
14,RQQQDYWLKDV [ANPEP_Y600_I603K],-2.803
15,VDGSLYETHPQ [HK1_Y417_K418E],4.441

# Same assay, conditions: sheet "Fer"; variant peptide relative to its reference peptide, pTyr-Var library screen enrichment
row,Sequence,Screen
1,NREGVYTVSAP [TGFBI_Y537_F540S],-3.034
2,PANMVYSTVEI [SLAMF7_Y304_T302M],-0.2345
3,SQINLYQDVML [ZNF806_Y33_A28S],-0.1473
4,SVVVLYEPPEV [TP53_Y220_P219L],3.283

# Biological target: c-Src kinase domain (Homo sapiens, UniProt P12931)
# Assay: as above
# Assay type: biochemical
# Details: sheet "Src"; effect of the variant peptide relative to its reference peptide in the pTyr-Var library screen
row,Sequence,Screen
1,ASTHIYQIMNH [ITK_Y588_V587I],0.7541
2,FAELVYTSFWH [ASS1_Y322_G324S],-0.03781
3,GTSLIYWILFT [G6PC3_Y214_T216I],-1.381
4,HNLDFYKETTN [FGFR3_Y648_K650E_YF],-1.013
5,ITNVLYHVVGW [GBA_Y412_L410V],-0.5492
6,KAWGIYDCQQP [CYP3A7_Y75_V71A],0.09779
7,KSRQIYDAFIM [GRK3_Y109_R104K_YF],0.6859
8,MENFIYESMQF [CYP19A1_Y361_R365Q_YF],0.1198
9,NVKGIYAVADV [GSR_Y371_G374A],-0.2612
10,QMVGMYASFFM [AVPR2_Y124_S127F_YF],2.334
11,RIGRKYKRVRF [F8_Y442_K444R],3.277

# Same assay, conditions: sheet "Src"; variant peptide versus its reference peptide in the pTyr-Var library screen
row,Sequence,Screen
1,AVISVYDLVVV [PSEN1_Y256_A260V],-0.2228
2,EFHRLYEEFTR [PIK3R1_Y467_D464H_YF],0.07006
3,FTDPFYDFEIE [ZC3H18_Y372_A368T_YF],0.548
4,MSRFIYSTDFF [NTRK1_Y676_D674Y_YF],-0.3372
5,NREGVYTVSAP [TGFBI_Y537_F540S],-0.08291
6,PANMVYSTVEI [SLAMF7_Y304_T302M],0.01938

# Biological target: T1, c-Abl kinase domain (Mus musculus, UniProt P00520)
# T1 sequence (P00520 242-493 limits assumed): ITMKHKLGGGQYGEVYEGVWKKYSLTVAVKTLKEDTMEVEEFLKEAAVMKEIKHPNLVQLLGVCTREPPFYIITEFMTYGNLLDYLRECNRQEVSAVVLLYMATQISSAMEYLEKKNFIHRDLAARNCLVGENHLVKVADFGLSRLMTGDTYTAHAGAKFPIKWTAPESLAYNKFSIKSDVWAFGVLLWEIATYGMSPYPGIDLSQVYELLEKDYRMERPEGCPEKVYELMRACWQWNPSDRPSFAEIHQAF
# Assay: as above
# Assay type: biochemical
# Details: sheet "Abl"; effect of variant peptide relative to its reference peptide in pTyr-Var library screen (enrichment)
row,Sequence,Screen
1,FTDPFYDFEIE [ZC3H18_Y372_A368T_YF],2.472
